# Patent US20050164903A1, “Complexed surfactant system” (priority 2001, published 2005)
# Where “and” joins values, the source holds several entries; their conditions need not be identical. Equal values may be shown once. Entries after “also recorded” stand apart in the source; their conditions may differ.
# What was measured:
# [1] = Foaming property (initial foamability and foam stability), semi-micro TK method; format: physicochemical; settings: 1% solution
# Description: As samples for measuring initial foamability and foam stability, samples prepared under the same conditions as those used for measuring Krafft point were used (Table 14). […] The semi-micro TK method was used for measurement, and mean values were taken after measuring three times.
# The tests were repeated three times and a mean value was taken.
# Experiments were repeated three times, and a mean value was taken. For the experiment, a 1% aqueous solution was used.
# [2] = Surface tension and cmc, Kruss tensiometer K12; format: physicochemical
# Protocol: Samples of which surface tensions were to be measured were prepared by mixing SLS and a cationic compound in a mole ratio of 1:1, wherein deionized water was used as water, and a container for measurement was immersed in a cleaning solution for more than 3 hours, washed with water and acetone, dried in an oven, and then used.
# A ring method was used, and after measuring 5 times, a mean value was taken. Solutions of 1%, 0.1%, 0.01%, and 0.001% by weight ratio of each of the cationic compounds were prepared to use for the tests.
# [3] = Phase stability (appearance) of sample solutions; settings: for Phase stability (appearance of sample solution): 1% aqueous solution
# Description: Concentration of a mixed system was controlled to 2% aqueous solution, and a mixing ratio of SLS and the cationic compound was controlled to 1:1 by mole ratio so that changes in physical properties could be remarkably shown (Table 1).
# [4] = Measurement of Krafft point (cloudiness on cooling, transparency on re-heating); format: physicochemical; settings: 1% solution
# Protocol: In the Krafft point test, the temperature when the solution clouded through the previous test becomes transparent again while elevating the temperature were measured.
# The temperature when cloudiness begins was measured while cooling the transparent cationic compound solution (condition of lowering temperature). Additionally, the temperature when the solution becomes transparent was measured while elevating the temperature of the cloudy solution (condition of elevating temperature).
# Also, while elevating the temperature of the clouded solution, temperatures when the solutions became transparent again were measured (condition when elevating temperature).
# [5] = Stability to hard water (10,000 ppm CaCl2 hard water added until cloudiness); format: physicochemical; settings: for Precipitation in hard water: 0.5% (weight ratio), 100 ml sample
# Protocol: After dissolving 11.69 g of CaCl2.2H2O in 1 liter of water to prepare hard water of 10,000 ppm, it was slowly added to a 0.5% aqueous solution sample, and stability to hard water was evaluated using the amount of hard water added until cloudiness began.
# Hard water of 10,000 ppm prepared by dissolving 11.69 g of CaCl2.2H2O in 1 L of water was used for the tests. Stability to hard water was measured by adding hard water until pearl is appear, using 0.5% (weight ratio) of the cationic compound and 100 ml of the sample. This test was repeated by three times, and a mean value was taken.
# Hard water at a 10,000 ppm concentration prepared by dissolving 11.69 g of CaCl2.2H2O in 1 L of water was used for the experiments. […] The tests were repeated by three times, and a mean value was measured.
# [6] = Solubility noted for synthesized compounds; format: physicochemical; settings: noted with the synthesis
Surface tension ([2]; concentration 0.01%),Surface tension ([2]; concentration 0.1%),Surface tension ([2]; concentration 1%),Solubility [6],Compound,"Foaming property, result in words [1]",Phase stability (appearance of sample solution) [3],further results
47.50 mN/m,33.90 mN/m,27.91 mN/m,–,"1.6-12-(N,N-methyloctylamino)ethanollhexane [Synthesis Example 17]",No foaming,cloudiness,Concentration at which the solution became transparent ([3]; cationic compound in water): 0.1 wt %
–,–,–,insoluble in acetone,"C[N+](C)(C)CCO [Synthesis Example 5, N-(trimethylamino)ethanol]",–,–,–
31.67 mN/m,29.59 mN/m,31.94 mN/m,–,"CCCCCCCCCCCC[N+](C)(C)[O-] [Synthesis Example 19, N-Dimethyl Lauryl Amineoxide]",foam immediately disappeared,transparent,"Foaming property, initial foamability, 0 min. [1]: 210 mL; Foaming property, 1 min. ([1]; 1 min.): 55 mL; Precipitation in hard water [5]: not precipitated; Surface tension ([2]; concentration 0.001%): 53.88 mN/m"
–,–,–,soluble in acetone,N-(dimethyldodecylamino ethanol (EO)4 [Synthesis Example 7],–,–,–

# The remaining lines, values behind:
Compound,Surface tension ([2]; concentration 0.01%),Surface tension ([2]; concentration 0.1%),Surface tension ([2]; concentration 1%),Solubility [6],"Foaming property, result in words [1]",Phase stability (appearance of sample solution) [3],further results
"CCCCCCCCCCCCOS(=O)(=O)[O-].[Na+] [SLS, sodium lauryl sulfate, reference compound]",57.18 mN/m,25.19 mN/m,35.92 mN/m,–,maintains foam for 5 minutes almost constantly,–,"Krafft point, when elevating temperature: solution transparent again [4]: 14 °C; Krafft point, when lowering (dropping) temperature: cloudiness begins ([4]; sulfate): 2˜3 °C and 2 °C and 2-3 °C; Foaming property, initial foamability, 0 min. [1]: 233 mL; Hard water concentration ([5]; stability to hard water): 310 ppm"
"CCCCCCCC[N+](C)(C)CCO [Synthesis Example 2, N-(dimethyloctylamino)ethanol]",–,–,–,insoluble in acetone,–,–,–
"CC[N+](C)(C)CCO [Synthesis Example 4, N-(dimethylethylamino)ethanol]",–,–,–,"soluble in acetone, insoluble in n-hexane",–,–,–
"C[N+](C)(CCO)CCCCCC[N+](C)(C)CCO.[I-].[I-] [Synthesis Example 14, 1,6-[2-(N,N-dimethylamino)ethanol]hexane]",71.41 mN/m,70.04 mN/m,59.49 mN/m,–,did not produced foam; also recorded: No foaming,transparent,–
"CCCC[N+](C)([O-])CCCCCC[N+](C)([O-])CCCC (stereo not drawn) [Synthesis Example 23, 16-(N,N-butylmethylamineoxyl)hexane]",64.05 mN/m,56.46 mN/m,46.51 mN/m,–,did not produce foam,transparent,Precipitation in hard water [5]: not precipitated
N-(butyidimethylamino)ethanol [Synthesis Example 3],–,–,–,insoluble in acetone,–,–,–
